Measurements taken from patent publication US7998460B2, “Prevention of deficits in neurogenesis with anti-inflammatory agents” (The Board of Trustees of the Leland Stanford Junior …, priority 2003, dated 2011).

Test system: hippocampal neurogenesis
Test: LPS-induced transient illness, microglia and hippocampal neurogenesis in mice
Format: in vivo, mouse
Method: To investigate whether an LPS challenge produces more chronic effects on neurogenesis, adult female C57BI/6 mice were injected intraperitoneally (i.p.) with 0, 5, 7.5 and 10 mg/kg of LPS and subcutaneously with sterile saline to prevent dehydration. Mice were then injected once daily over the next 6 days with the cell synthesis marker bromodeoxyuridine (BrdU; 50 mg/kg) to label dividing progenitor cells. Histology was performed on sections from mice that were perfused on Day 7 or Day 28. The number of BrdU-labeled (new) or IBA-1-labeled (monocyte/microglial) cells was estimated through hippocampal sets stereologically using enzyme substrate immunohistochemistry and light microscopy and BrdU-labeled cell phenotypes and IBA-1-labeled activation was determined using immunofluorescence and confocal microscopy.
Subjects. All mice used as subjects in this study were treated in accordance with the policies set forth by the Stanford Animal Care and Use Committee and NIH regarding the ethical use of animals for experimentation. CB57BI/6 mice (7 wks old upon arrival from -Taconic) were housed in groups of 4-5 in autoclaved shoebox cages under standard conditions and were given free access to autoclaved Prolab Mouse 3000 chow (PMI Nutrition International, St. Louis, Mo.) and autoclaved tap water. One week after arrival, vehicle- and NSAID-treated mice were given an intraperitoneal (i.p.) injection of sterile saline or lipopolysaccharide (LPS; 5 mg/kg at a concentration of 1 mg/ml isotonic saline; Sigma Aldrich, St. Louis, Mo.) to induce transient illness (Day 0) and daily subcutaneous (s.c.) isotonic saline (0.5 ml) injections (Days 0-3) to prevent illness-induced dehydration. The cell synthesis marker bromodeoxyuridine (BrdU; Sigma Aldrich, St. Louis, Mo.) was injected i.p. (50 mg/kg at a concentration of 10 mg/ml in freshly prepared isotonic saline) once per day for 6 days to label dividing cells, beginning Day 0 (2 h after LPS). The mice were anesthetized with ketamine/xylazine and killed at Days 7 or 28 (to assess hippocampal neurogenesis during illness and just before behavioral testing, respectively) or Day 80 (to measure hippocampal neurogenesis following behavioural testing) by perfusion with 4% paraformaldehyde. Brains were post-fixed overnight in perfusate, microtome sectioned at 40 μm through the hippocampus and stored in tissue cryoprotectant solution at −20° C. until processed immunohistochemically.
Histology and Immunohistochemistry. Free floating sections were immunostained as described previously using the following primary antibodies and working concentrations: rat anti-bromodeoxyuridine (1:500; Accurate, Westbury, N.J.) goat anti-doublecortin (1:500; Santa Cruz, Calif.), rabbit anti-[…] (1:2000; WAKO, Los Angeles, Calif.), rabbit anti-FA-11 (CD68; 1:200; Serotec, Raleigh, N.C.), guinea pig anti-GFAP (1:750; Harlan, Indianapolis, Ind.), rabbit anti-NG2 (1:2000; a gift from W. Stallcup), mouse anti-NeuN (1:500; Chemicon; Temeculah, Calif.). Tissue was incubated in all primary antibodies ovemight (and in anti-BrdU for 48 h) at 4° C. Phenotyping sets were incubated in minimally cross-reactive secondary IGg conjugated fluorophores (1:500; Jackson Immunoresearch, West Grove, Pa.) overnight at 4° C. and coverslipped under PVA-DABCO.
Cell Counting and Unbiased Stereology. BrdU-labeled cells were phenotyped and total BrdU-labeled and […] cell numbers stereologically estimated if they were located in the hippocampal granule cell layer proper and subgranular zone (the neurogenic zone that includes a 50 μm border between the hilus and granule cell layer). BrdU-labeled cells were phenotyped on immunofluroescent stained sections that were anatomically matched using a Zeiss 510 Meta confocal microscope using a multi-channel configuration with a 40× objective and electronic zoom of 2.3. Appropriate gain and black level was set using control sections stained with secondary antibodies alone. […]

[1] = dentate gyri, 4 weeks after LPS

How did the “reduction in the net number of new neurons” value (4 weeks after LPS challenge) turn out when lipopolysaccharide [LPS] was run?
The value was 45-55%.

And the “reduction of BrdU positive cells colabeled with NeuN” value (4 weeks after LPS challenge)?
Its value is “≈ 57%”.

And the “reduction of BrdU-positive cells colabeled with DCX/NeuN” value (4 weeks after LPS challenge)?
Its value is “≈ 44%”.

What about the “total number of BrdU positive cells vs vehicle” value (6 and 28 d after injection) of the same substance?
The value was “similar”.

What about the “activation (FA-11/CD68) intensity on IBA-1 positive cells vs vehicle” value [1] of the same substance?
Its value is 1.25 fold.

What about the “total IBA-1 positive cell number vs vehicle” value [1] of the same substance?
Its value is “similar”.

And the “reduction of BrdU positive cells colabeled with DCX/NeuN” value (week following LPS challenge, independent of LPS dose)?
Its value is “≈ 41%”.
